{"source": "patent US20050245508A1", "about": "“Treatment of malignant gliomas with TGF-beta inhibitors” (SCIOS, Inc., priority 2003, published 2005)", "key": {"[1]": {"system": "HLA-mismatched PBL cocultured with LN-308 cells", "assay": "Cytokine release by immune effector cells, Elispot", "type": "cell-based, human", "settings": "1 μM", "description": "(§1) FIG. 3. Modulation of allogeneic anti-glioma immune responses by Compound No. 79 involves TGF-β antagonism. A. The lytic activity against LN-308 targets of PBL (squares) or purified T cells (triangles) preincubated with irradiated LN-308 cells in the absence (open symbols) or presence (filled symbols) of Compound No. 79 (1 μM) was determined in ^51Cr release assays. B-D. PBL were cultured in the absence (left) or presence (right) of irradiated LN-308 cells for 5 days. The cultures contained Compound No. 79 (1 μM) (filled bars) or not (open bars). Subsequently these effector cells were cocultured for 24 h with fresh non-irradiated LN-308 cells in the absence of Compound No. 79. The release of IFN-γ (B), TNF-α (C) or IL-10 (D) was assessed by Elispot assay. Data are expressed as cytokine-producing cells per 5×10^5 effector cells (n=3, *p<0.05, **p<0.01, t-test, effect of Compound No. 79). […]\nIL-10, TNF-α and IFN-γ release by immune effector cells was assessed by Elispot assay in a multiscreen-HA 96 well plate (Millipore, Eschborn, Germany), coated with corresponding anti-human capture antibodies (Becton Dickinson). […] Spots were counted on an Elispot reader system (AID, Straβberg, Germany). […]"}, "[2]": {"assay": "Solubility in drinking water", "type": "physicochemical"}, "[3]": {"system": "CCL64 mink lung epithelial cells", "assay": "CCL64 TGF-β bioassay (growth, crystal violet)", "type": "cell-based", "description": "FIG. 1. Prevention of the growth inhibitory effects of recombinant and glioma-derived TGF-b1 and TGF-b2 by a TGF-β inhibitor (Compound No. 79 in Table 2). A. CCL64 cells were exposed to human recombinant TGF-b1 (filled symbols) or TGF-b2 (open symbols) (10 ng/ml) in the absence or presence of increasing concentrations of Comopund No. 79 for 72 h. B. CCL64 cells were maintained in serum-free medium containing heat-activated glioma cell SN (1:1) in the absence or presence of Compound No. 79 for 72 h. Growth was assessed by crystal violet assay (mean and SD, n=3).\nThe levels of bioactive TGF-β were determined using the CCL64 bioassay. Briefly, […] CCL64 cells were adhered to 96 well plates for 24 h, full medium was replaced by serum-free medium, and the cells were exposed to recombinant TGF-β1/2 or glioma cell culture supernatants diluted in serum-free medium for 72 h. Growth was assessed by crystal violet staining at 72 h. Glioma cell supernatants were harvested from confluent cultures maintained for 48 h in serum-free medium and heat-treated (5 min, 85° C.) to activate latent TGF-β (Leitlein et al., J. Immunol., 166:7238-7243 (2001))."}, "SMA-560 glioma cells": {"system": "SMA-560 glioma cells", "assay": "Glioma cell growth, [methyl-3H]-thymidine incorporation", "type": "cell-based, murine", "description": "FIG. 2. Abrogation of autocrine TGF-β signaling in glioma cells by Compound No. 79. A. The cells were seeded at 10^4 cells/well in 96 well plates and cultured in the absence or presence of Compound No. 79 for 48 h in serum-free medium. Growth was assessed by [methyl-^3H]-thymidine incorporation at 48 h (*p<0.05, t-test). B. Lysates from untreated glioma cells or cells preexposed to Compound No. 79 (1 μM) for 24 h or exposed to TGF-b2 (5 ng/ml) for 1 h or both were assessed for the levels of p-Smad2 or total Smad2/3. Note that the antibodies were specific to p-Smad2 and total Smad 2 and 3, respectively.\nThe glioma cells and CCL64 cells were maintained in DMEM supplemented with 2 mM L-glutamine (Gibco Life Technologies, Paisley, UK), 10% FCS (Biochrom KG, Berlin, Germany) and penicillin (100 IU/ml)/streptomycin (100 μg/ml) (Gibco). Growth and viability of the glioma cells was examined by crystal violet, LDH release (Roche, Mannheim, Germany) and trypan blue dye exclusion assays. To assess clonogenicity, 500 SMA-560 cells were seeded into 6 well plates (9.4 cm^2). After formation of visible cell formations, colonies>20 cells were counted."}, "LN-308 targets": {"system": "LN-308 targets", "assay": "51Cr release lysis assay, PBL or T cells precultured with irradiated glioma cells", "type": "cell-based, human", "settings": "preexposure 1 μM during coculture with irradiated glioma cells, 4 h 51Cr release, FIG. 3A", "description": "as §1\nHLA-A2-mismatched PBL or T cells (107/25 cm2 flask) were cocultured with 106 irradiated (30 Gy) glioma cells for 5 days. […] The maximum 51Cr release was determined by addition of NP40 (1%). After 4 h the supernatants were transferred to a Luma-PlateTM-96 (Packard, Dreieich, Germany) and measured. The percentage of 51Cr release was calculated as follows: 100×([experimental release−spontaneous release]/[maximum release−spontaneous release])."}}, "data": [{"smiles": "Fc1ccc(Cl)cc1-c1nc(Nc2ccncc2)c2nccnc2n1", "note": "[Compound No. 79]", "values": [{"measurement": "IFN-γ release", "setting": "[1]; PBL primed in presence of LN-308 cells, FIG. 3B", "result": "restored the IFN-γ release to levels comparable to PBL pre-cultured in the absence of LN-308 cells"}, {"measurement": "IL-10 release", "setting": "[1]; unstimulated and glioma cell-primed cultures, FIG. 3D", "result": "reduced"}, {"measurement": "solubility", "setting": "[2]", "result": "relatively poor solubility"}, {"measurement": "EC50", "setting": "[3]; TGF-β1 or TGF-β2 10 ng/ml, 72 h, FIG. 1A, read-out: EC50 of rescue of TGF-β-mediated inhibition of growth", "result": "~0.03", "unit": "µM"}, {"measurement": "growth inhibition mediated by glioma cell supernatants", "setting": "[3]; diluted serum-free SMA-560 or LN-308 supernatants, same concentrations, FIG. 1B", "result": "nullified"}, {"measurement": "proliferation", "setting": "SMA-560 glioma cells; concentrations required to block TGF-β in the CCL64 bioassay, 48 h", "result": "no effect"}, {"measurement": "growth", "setting": "SMA-560 glioma cells; higher concentrations of up to 1 μM, FIG. 2A", "result": "moderately inhibited"}, {"measurement": "lytic activity of HLA-A2-mismatched PBL or purified T cells", "setting": "LN-308 targets", "result": "significantly enhanced"}]}]}
